{
  "source": "paper PMC11645267",
  "about": "“Novel pharmacologic inhibition of lysine-specific demethylase 1 as a potential therapeutic for glioblastoma” (Cancer Gene Therapy, 2024)",
  "assay_type_in_all_cases": "cell-based",
  "key": {"[1]": {"test_system": "F3", "assay": "Cell proliferation assay (Cell Counting Kit 8)", "settings": "96 h; F3 (normal neural stem cell line), 4 days; read-out: Growth inhibitory IC50 (GI50)", "excerpt": "(§1) Supplementary materials and methods […]\n(§2) Cell lines and culture conditions\n(§3) Glioblastoma cell line, LN229, was obtained from the American Type Culture Collection (ATCC, Manassas, VA, USA). Normal fibroblast cell lines TIG3 and WI-38, TM31 (low grade glioma) were obtained from the RIKEN Bioresource Research Center (Tsukuba, Japan). Onda10 and KINGS1 (low grade glioma) cell lines were obtained from the Japanese Collection of Research Bioresources (Ibaraki, Japan). F3 is utilized as a neural stem cell line{Kim, 2004 #1412}{Natsume, 2013 #1009}. All cells were maintained in DMEM medium (Wako, Osaka, Japan) containing 5% fetal bovine serum (FBS, Thermo Fisher Scientific, Waltham, MA, USA) and 1% penicillin-streptomycin (Wako). […]\n(§4) For the cell proliferation assay, cells at a density of 1 × 10^5 cells per well were seeded before treatment with LSD1 inhibitors. Cell proliferation was measured after 4 days using a Cell Counting Kit 8 (Dojindo, Kumamoto, Japan) according to the manufacturer ’s […]\n(§5) instructions. For GSC cells, the CellTiter-Glo 3D Viability Assay (Promega, Madison, WI, USA) was used to measure the living cells. […]"}, "[2]": {"test_system": "KINGS1", "assay": "Cell proliferation assay (Cell Counting Kit 8)", "settings": "Homo sapiens, KINGS-1, 96 h; KINGS1 (grade III glioma), 4 days; read-out: Growth inhibitory IC50 (GI50)", "excerpt": "as §1, §2, §3, §4, §5"}, "[3]": {"test_system": "LN229", "assay": "Cell proliferation assay (Cell Counting Kit 8)", "settings": "Homo sapiens, LN-229, 96 h; LN229 (GBM cell line), 4 days; read-out: Growth inhibitory IC50 (GI50)", "excerpt": "as §1, §2, §3, §4, §5"}, "[4]": {"test_system": "Onda10", "assay": "Cell proliferation assay (Cell Counting Kit 8)", "settings": "96 h; Onda10 (grade III glioma), 4 days; read-out: Growth inhibitory IC50 (GI50)", "excerpt": "as §1, §2, §3, §4, §5"}, "[5]": {"test_system": "TIG3", "assay": "Cell proliferation assay (Cell Counting Kit 8)", "settings": "Homo sapiens, TIG-3, 96 h; TIG3 (normal fibroblast), 4 days; read-out: Growth inhibitory IC50 (GI50)", "excerpt": "as §1, §2, §3, §4, §5"}, "[6]": {"test_system": "TM31", "assay": "Cell proliferation assay (Cell Counting Kit 8)", "settings": "96 h; TM31 (grade III glioma), 4 days; read-out: Growth inhibitory IC50 (GI50)", "excerpt": "as §1, §2, §3, §4, §5"}, "[7]": {"test_system": "WI38", "assay": "Cell proliferation assay (Cell Counting Kit 8)", "settings": "Homo sapiens, WI-38, 96 h; WI38 (normal fibroblast), 4 days; read-out: Growth inhibitory IC50 (GI50)", "excerpt": "as §1, §2, §3, §4, §5"}, "[8]": {"test_system": "KINGS1", "assay": "Stemness marker expression (qPCR, western blot)", "settings": "KINGS1, 5 μM, 96 h", "excerpt": "Super-enhancers consist of enhancer clusters with abundant binding of transcription factors and are highly enriched with H3K27ac marks. The H3K4me2 increased regions included the MYC locus and H3K4me2 de novo regions comprised Nestin and SOX2 loci (Fig. 2F, Supplementary Fig. S5A). These regions were also identified as super-enhancers in GSCs using data from our previous study (Fig. 2F). Compared to the large increase in H3K4me2 in these regions, changes in H3K4me3 were subtle after S2172 treatment (only 2582 regions were acquired modification) (Fig. 2C). Increasing the me2/me3 ratio at H3K4 is associated with reduced gene expression. […]\ninstructions. For GSC cells, the CellTiter-Glo 3D Viability Assay (Promega, Madison, WI, USA) was used to measure the living cells. All proliferation experiments were repeated […]\nTotal RNA from the cell lines was extracted using TRIzol (Thermo Fisher Scientific), followed by reverse-transcription using Prime Script RT Master Mix (Takara, Kusatsu, Japan). […]\nB. Western blot analysis of LSD1,MYC, Nestin, SOX2,and ACTB in same cells as shown in panel A. ACTB was used as a loading control. […] Quantification of signal intensities of the Western blot (right panel). […] Right panel: Quantification of band signal intensities from the Western blot. […] The ratio was calculated by dividing the cleaved PARP band intensity by the full-length PARP band intensity. […]"}},
  "data": [
    {"smiles": "NC1CCC(NC2CC2c2cc(F)cc(F)c2OCc2ccccc2)CC1", "note": "(centres unmarked) [S2172]", "values": [
      {"measurement": "IC50", "setting": "[1]", "result": 22.5, "unit": "µM"},
      {"measurement": "IC50", "setting": "[2]", "result": 33, "unit": "µM"},
      {"measurement": "IC50", "setting": "[3]", "result": 8.2, "unit": "µM"},
      {"measurement": "IC50", "setting": "[4]", "result": 21, "unit": "µM"},
      {"measurement": "IC50", "setting": "[5]", "result": "> 40", "unit": "µM"},
      {"measurement": "IC50", "setting": "[6]", "result": 17, "unit": "µM"},
      {"measurement": "IC50", "setting": "[7]", "result": 29.9, "unit": "µM"},
      {"measurement": "stemness marker expression at mRNA and protein levels", "setting": "[8]", "result": "did not show significant changes"}
    ]}
  ]
}
